# Results from US8906914B2, “Ethylene diamine modulators of fatty acid hydrolase” (priority 2009, dated 2014).
# Structures can show the parent of a compound that is named as a salt.
# Columns and labels:
# Rat FAAH-1 = molecular target: T1, Rat FAAH-1 (Rattus norvegicus, UniProt P97612); test: Rat FAAH-1 assay (Assay Method 2), 3H-anandamide hydrolysis in cell homogenate; format: biochemical
# T1 construct: expressed in transfected cells
# T1 sequence (P97612 1-579): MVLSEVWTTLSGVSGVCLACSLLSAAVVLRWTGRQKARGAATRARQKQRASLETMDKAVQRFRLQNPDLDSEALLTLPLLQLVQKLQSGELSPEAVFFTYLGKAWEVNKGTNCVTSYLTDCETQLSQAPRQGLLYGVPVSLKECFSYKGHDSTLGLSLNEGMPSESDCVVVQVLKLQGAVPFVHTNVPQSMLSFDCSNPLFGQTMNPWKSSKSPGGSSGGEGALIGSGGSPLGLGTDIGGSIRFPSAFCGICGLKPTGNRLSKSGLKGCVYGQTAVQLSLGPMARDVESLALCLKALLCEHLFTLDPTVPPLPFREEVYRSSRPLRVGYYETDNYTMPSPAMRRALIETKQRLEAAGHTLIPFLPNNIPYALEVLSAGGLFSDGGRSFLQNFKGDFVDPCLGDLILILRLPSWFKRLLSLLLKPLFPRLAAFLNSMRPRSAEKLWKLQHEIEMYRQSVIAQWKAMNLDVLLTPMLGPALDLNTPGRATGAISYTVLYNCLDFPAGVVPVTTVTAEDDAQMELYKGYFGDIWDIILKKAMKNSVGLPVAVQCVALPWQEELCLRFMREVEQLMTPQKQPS
# Protocol: A. Transfection of Cells with Rat FAAH-1
# (§1) A 10-cm tissue culture dish with a confluent monolayer of SK-N-MC cells was split 2 days (d) prior to transfection. Using sterile technique, the media was removed and the cells were detached from the dish by the addition of trypsin. One fifth of the cells were then placed onto a new 10-cm dish. Cells were grown in a 37° C. incubator with 5% CO2 in Minimal Essential Media Eagle with 10% Fetal Bovine Serum. After 2 d, cells were approximately 80% confluent. These cells were removed from the dish with trypsin and pelleted in a clinical centrifuge. The pellet was re-suspended in 400 μL complete media and transferred to an electroporation cuvette with a 0.4 cm gap between the electrodes. Supercoiled rat FAAH cDNA (1 μg) was added to the cells and mixed. The voltage for the electroporation was set at 0.25 kV, and the capacitance was set at 960 μF. After electroporation, the cells were diluted into complete media (10 mL) and plated onto four 10-cm dishes. Because of the variability in the efficiency of electroporation, four different concentrations of cells were plated. The ratios used were 1:20, 1:10, and 1:5, with the remainder of the cells being added to the fourth dish. The cells were allowed to recover for 24 h before adding the selection media (complete media with 600 μg/mL G418). After 10 d, dishes were analyzed for surviving colonies of cells. Dishes with well-isolated colonies were used. Cells from individual colonies were isolated and tested.
# (§2) The assay mixture consisted of 50 μL of the cell homogenate, 10 μL of the test compound, and 40 μL of anandamide [1-^3H-ethanolamine] (^3H-AEA, Perkin-Elmer, 10.3 Ci/mmol), which was added last, for a final tracer concentration of 80 nM. The reaction mixture was incubated at rt for 1 h. During the incubation, 96-well Multiscreen filter plates (catalog number MAFCNOB50; Millipore, Bedford, Mass., USA) were loaded with 25 μL of activated charcoal (Multiscreen column loader, catalog number MACL09625, Millipore) and washed once with 100 μL of MeOH. Also during the incubation, 96-well DYNEX MicroLite plates (catalog number NL510410) were loaded with 100 μL of MicroScint40 (catalog number 6013641, Packard Bioscience, Meriden, Conn., USA). After the 1 h incubation, 60 μL of the reaction mixture were transferred to the charcoal plates, which were then assembled on top of the DYNEX plates using Centrifuge Alignment Frames (catalog number MACF09604, Millipore). The unbound labeled ethanolamine was centrifuged through to the bottom plate (5 min at 2000 rpm), which was preloaded with the scintillant, as described above. The plates were sealed and left at rt for 1 h before counting on a Hewlett Packard TopCount.
# (§3) Where activity is shown as greater than (>) a particular value, the value is the solubility limit of the compound in the assay medium or the highest concentration tested in the assay.
# FAAH = molecular target: T2, FAAH (Homo sapiens, UniProt O00519); test: Human FAAH assay (Assay Method 1), 3H-anandamide hydrolysis in cell homogenate; format: biochemical; parameters: expressed in transfected cells; alternatively T84 frozen cell pellets (endogenous FAAH)
# T2 sequence (O00519 1-579): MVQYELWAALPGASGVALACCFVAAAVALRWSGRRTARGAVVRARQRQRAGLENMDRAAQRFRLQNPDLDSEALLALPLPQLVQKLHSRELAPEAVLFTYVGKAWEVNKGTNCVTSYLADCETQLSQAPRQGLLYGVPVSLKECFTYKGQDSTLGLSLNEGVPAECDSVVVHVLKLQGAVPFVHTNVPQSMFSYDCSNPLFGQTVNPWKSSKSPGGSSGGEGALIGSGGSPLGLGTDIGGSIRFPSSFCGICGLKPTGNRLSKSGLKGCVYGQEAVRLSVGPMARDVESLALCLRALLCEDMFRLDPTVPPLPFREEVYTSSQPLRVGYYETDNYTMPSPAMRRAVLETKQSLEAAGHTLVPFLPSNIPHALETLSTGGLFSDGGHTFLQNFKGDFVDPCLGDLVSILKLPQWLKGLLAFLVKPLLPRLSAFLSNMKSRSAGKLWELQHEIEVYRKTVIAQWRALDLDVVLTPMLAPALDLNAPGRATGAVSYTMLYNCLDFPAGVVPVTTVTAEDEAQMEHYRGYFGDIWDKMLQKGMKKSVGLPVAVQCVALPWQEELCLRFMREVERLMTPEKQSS
# Protocol: A. Transfection of Cells with Human FAAH
# as §1, with “Supercoiled human” for “Supercoiled rat”
# as §2, with “[1-3H-ethanolamine]” for “[1-^3H-ethanolamine]”
# as §3
IC50 (Rat FAAH-1) [nM],IC50 (FAAH) [nM],Compound
60,50,"N[C@@H](CNc1cc(-c2ccc(C(F)(F)F)c(Cl)c2)ncn1)c1ccccc1 [Example 1, (1R)—N^2-{6-[3-Chloro-4-(trifluoromethyl)phenyl]pyrimidin-4-yl}-1-phenylethane-1,2-diamine hydrochloride acid salt]"
8000,330,"CC(C)(C)OC(=O)N[C@@H](CNc1cc(-c2ccc(C(F)(F)F)c(Cl)c2)ncn1)c1ccccc1 [Example 2, (1R)-{2-[6-(3-Chloro-4-trifluoromethyl-phenyl)-pyrimidin-4-ylamino]-1-phenyl-ethyl}-carbamic acid tert-butyl ester]"
2400,1300,"N[C@H](CNc1cc(-c2ccc(C(F)(F)F)c(Cl)c2)ncn1)c1ccccc1 [Example 3, (1S)—N^2-{6-[3-Chloro-4-(trifluoromethyl)phenyl]pyrimidin-4-yl}-1-phenylethane-1,2-diamine hydrochloride acid salt]"
320,100,"N[C@@H](CNc1cc(-c2ccc(C(F)(F)F)c(F)c2)ncn1)c1ccccc1 [Example 4, (1R)—N^2-{6-[3-Fluoro-4-(trifluoromethyl)phenyl]pyrimidin-4-yl}-1-phenylethane-1,2-diamine hydrochloride acid salt]"
1000,130,"N[C@@H](CNc1cc(-c2ccc(C(F)(F)F)cc2)ncn1)c1ccccc1 [Example 5, (1R)-1-Phenyl-N^2-{6-[4-(trifluoromethyl)phenyl]pyrimidin-4-yl}ethane-1,2-diamine hydrochloride acid salt]"
880,82,"N[C@@H](CNc1cc(-c2ccc(OC(F)(F)F)cc2)ncn1)c1ccccc1 [Example 6, (1R)-1-Phenyl-N^2-{6-[4-(trifluoromethoxy)phenyl]pyrimidin-4-yl}ethane-1,2-diamine hydrochloride acid salt]"
120,53,"N[C@@H](CNc1cc(-c2ccc(OC(F)(F)F)c(Cl)c2)ncn1)c1ccccc1 [Example 7, (1R)—N^2-{6-[3-Chloro-4-(trifluoromethoxy)phenyl]pyrimidin-4-yl}-1-phenylethane-1,2-diamine hydrochloride acid salt]"
170,50,"N[C@@H](CNc1cc(-c2ccc(OC(F)(F)F)c(F)c2)ncn1)c1ccccc1 [Example 8, (1R)—N^2-{6-[3-Fluoro-4-(trifluoromethoxy)phenyl]pyrimidin-4-yl}-1-phenylethane-1,2-diamine hydrochloride acid salt]"
320,20,"Cc1ccc2sc(-c3cc(NC[C@H](N)c4ccccc4)ncn3)cc2c1 [Example 9, (1R)—N^2-[6-(5-Methyl-1-benzothiophen-2-yl)pyrimidin-4-yl]-1-phenylethane-1,2-diamine hydrochloride acid salt]"
84,26,"CCOc1ccc(-c2cc(NC[C@H](N)c3ccccc3)ncn2)cc1C(F)(F)F [Example 10, (1R)—N^2-{6-[4-Ethoxy-3-(trifluoromethyl)phenyl]pyrimidin-4-yl}-1-phenylethane-1,2-diamine hydrochloride acid salt]"
170,19,"N[C@@H](CNc1cc(-c2ccc(SC(F)(F)F)cc2)ncn1)c1ccccc1 [Example 11, (1R)-1-Phenyl-N^2-(6-{4-[(trifluoromethyl)sulfanyl]phenyl}pyrimidin-4-yl)ethane-1,2-diamine hydrochloride acid salt]"
100,12,"N[C@@H](CNc1cc(-c2cc(F)c(OC(F)F)c(F)c2)ncn1)c1ccccc1 [Example 12, (1R)—N^2-{6-[4-(Difluoromethoxy)-3,5-difluorophenyl]pyrimidin-4-yl}-1-phenylethane-1,2-diamine hydrochloride acid salt]"
71,44,"N[C@@H](CNc1cc(-c2ccc3c(C(F)(F)F)noc3c2)ncn1)c1ccccc1 [Example 13, (1R)-1-Phenyl-N^2-[6-(3-(trifluoromethyl)-benzo[d]isoxazol-6-yl)pyrimidin-4-yl]-ethane-1,2-diamine hydrochloride acid salt]"

Compound,IC50 (Rat FAAH-1) [nM],IC50 (FAAH) [nM]
"N[C@@H](CNc1cc(-c2ccc(Cl)cc2)ncn1)c1ccccc1 [Example 14, (1R)—N^2-[6-(4-Chlorophenyl)pyrimidin-4-yl]-1-phenylethane-1,2-diamine hydrochloride acid salt]",> 10000,1000
"N[C@@H](CNc1cc(-c2cccc(Cl)c2)ncn1)c1ccccc1 [Example 15, (1R)—N^2-[6-(3-Chlorophenyl)pyrimidin-4-yl]-1-phenylethane-1,2-diamine hydrochloride acid salt]",–,1000
